# According to patent US8476463B2 (BASF SE, priority 2008, dated 2013):
# Experiment: Temperature-dependent solubility (saturation concentration) of fumaric acid in di-n-butyl phthalate absorbent
# Format: physicochemical
# Excerpt: The analysis can be effected, for example, by means of calibrated gas chromatography. For calibration, preference is given to using an internal standard, for example diethylene glycol dimethyl ether. Before the gas chromatography analysis, the sample is generally homogenized, i.e. taken up in a solvent. One example of a solvent entirely suitable for this purpose is N,N-dimethylformamide. […] Particularly suitable separating columns are capillary columns with 100% dimethylpolysiloxane (e.g. DB-1 from Agilent) or (14% cyanopropylphenyl)methylpolysiloxane (e.g. DB-1701 from Agilent), preferably each of length 60 m, internal diameter 0.32 mm and film thickness 1 μm.
# The syringe attachment filter used is a membrane filter of pore width 0.2 micrometer. […] Its concentration is determined analogously to the analysis method described in the determination of c(FA, desorption column outlet). […] When establishing the new, higher temperature, the temperature of the suspension must not overshoot the desired temperature by more than 3° C. When the desired temperature has been established, the mixture is then stirred at constant temperature at least for a duration of 4 hours. • (6) After this continued stirring time, another sample is taken, as described in point (4). In each sampling, generally a new syringe attachment filter is used.
# Examples of secondary components caused by the industrial process include water, maleic anhydride, maleic acid, acrylic acid, methacrylic acid, acetic acid, propionic acid, phthalic anhydride and phthalic acid. […] The continuous line corresponds to the fitted curve.
compound,measurement,setting,value
O=C(O)/C=C/C(=O)O [fumaric acid],saturation concentration of fumaric acid in the solution,"mixture of dibutyl phthalate and fumaric acid, 50° C.",250 ppm by weight
same,saturation concentration of fumaric acid in the solution,"solution from industrially operated maleic anhydride plant (dibutyl phthalate >98.5% by weight), 30° C.",250 ppm by weight
same,saturation concentration of fumaric acid in the solution,"solution from industrially operated maleic anhydride plant (dibutyl phthalate >98.5% by weight), 50° C.",400 ppm by weight
